{
  "source": "patent US20230277669A1",
  "about": "“USES OF UROLITHINS” (Amazentis SA, priority 2022, published 2023)",
  "test_system": "CD8+ T cells",
  "test": "In vitro stimulation of CD3+ T cells with aCD3/aCD28 beads in presence of UA",
  "format": "cell-based, FVB mice",
  "settings": "48 h, ICG001 with UA",
  "experimental": "(FIG. 2A) Scheme of CD3+ T-cell activation and analysis for various timepoints. (FIG. 2B) Reduced effector molecule expression on in vitro treated cells (n=3 pooled from three independent experiments). Isolated T-cells were stimulated for 48 h at the presence of UA or DMSO in the indicated doses. Data are mean ± SD, *p < 0.05 by two-sided t-test. (FIG. 2C) Reduced effector molecule expression on in vitro treated cells (n=3 pooled from three independent experiments). Isolated T-cells were stimulated for 48 h at the presence of UA or DMSO in the indicated doses. Data are mean ± SD, *p < 0.05 by two-sided t-test. (FIG. 2D) Quantification of T memory stem cells (TSCM: CD44^-CD62L^+Sca1^hi) after 24 h, 48 h and 96 h post stimulation with aCD3/aCD28 stimulation beads as indicated in (A) (n=4 pooled from four independent experiments). Data are mean ± SD, statistical analysis was performed via two-sided t-test (*p < 0.05; **p < 0.01; n.s. not significant). (FIG. 2E) Mitochondrial membrane potential within naïve CD62L^+CD44^-CD8^+ T cells, with TMRM^lo representing cells with low mitochondrial membrane potential. Cells were stimulated for 48 h as depicted in (A). Data are mean ± SD, n=4; ***p <0.001 by two-sided t-test. Experiment was repeated twice in independent experiments. (FIG. 2F) Representative histogram and quantification of memory marker CD95 expression in CD62L^+CD44^-CD8^+ cells, 48 hours after in vitro stimulation. Data are mean ± SD; n=5; ****p < 0.0001 by two-sided t-test. Data depicts one of two independent experiments. (FIG. 2G) Analysis of TIL of UA-fed mice, treated as depicted in FIG. 1J. Percentage of TSCM within CD8+ (G; n=7), as well as TCF1 (H; n=7) PD1^hi,Tim3^hi and CTLA4hi (I-K, all n=6) in the TIL CD8+ population are shown. Data are mean ± SD, statistical analysis was performed via two-sided t-test (*p < 0.05; **p < 0.01;, ***p <0.001.). Data depicts one of two independent experiments. (FIG. 2H) The same experiment as FIG. 2G with TCF1 (n=7) in the TIL CD8+ population. (FIG. 2I) The same experiment as FIG. 2G with PD1^hi (n=6) in the TIL CD8+ population. (FIG. 2J) The same experiment as FIG. 2G with Tim3^hi (n=6) in the TIL CD8+ population. (FIG. 2K) The same experiment as FIG. 2G with CTLA4hi (n=6) in the TIL CD8+ population. (FIG. 2L) Flow cytometry readout of ex vivo cytokine release of previously isolated TIL upon re-stimulation with PMA/ionomycin. Data are mean ± SD with n=7 per group. Statistical analysis was performed by two-sided t-test (**p < 0.01). One out of two independent experiments are shown. (FIG. 2M) Flow cytometry readout of ex vivo cytokine release of previously isolated TIL upon re-stimulation with PMA/ionomycin. Data are mean ± SD with n=7 per group. Statistical analysis was performed by two-sided t-test (**p < 0.01). One out of two independent experiments are shown.\n(FIG. 4A) Scheme of CD3+ T-cell activation and analysis for various timepoints in order to investigate mitophagy induction in vitro. (FIG. 4B) Analysis of mitochondrial membrane potential within CD8+ T cells, with TMRM^lo representing cells with low mitochondrial membrane potential. Analysis was performed six hours after stimulation with aCD/aCD28 stimulation beads at the presence of the indicated treatments. N=4 per group, *p < 0.05 by Mann Whitney U test. One of two independent experiments are shown. (FIG. 4C) Representative flow histogram and quantification of lysosome formation in CD8+ cells six hours after in vitro stimulation. MFI shown relative to DMSO controls, n=4. Data are normalised mean ± SD, statistical analysis by two-sided t-test. One out of two independent experiments are shown. (FIG. 4D) Mitotracker Red staining of in vitro stimulated CD8+ cells after 24 hours of Urolithin A (UA25 n=6; UA50 n=6) or vehicle control treatment (DMSO: n=4). A representative flow histogram depicting identification of Mitotracker^hi cells is shown. […]",
  "data": [
    {"smiles": "O=C1[C@H](Cc2ccc(O)cc2)N2C(=O)CCN(C(=O)NCc3ccccc3)[C@H]2CN1Cc1cccc2ccccc12", "note": "[ICG001, reference compound]", "values": [
      {"measurement": "UA-induced TCF1 expression", "result": "abrogated"},
      {"measurement": "UA-induced TSCM formation", "result": "abrogated"}
    ]}
  ]
}
